US20120010253A1, “Fungicidal compositions comprising Fluopyram and Metrafenone” (BASF SE, priority 2009, published 2012)

What was measured:
Botrytis cinerea = experiment: Activity against the grey mold Botrytis cinerea in the microtiter plate test; assay type: cell-based; settings: MTP, 405 nm, 7 days after inoculation
Protocol: The active substances were formulated separately as a stock solution in dimethyl sulfoxide (DMSO) at a concentration of 10 000 ppm. Use Example 1—Activity Against the Grey Mold Botrytis cinerea in the Microtiter Plate Test The stock solutions were mixed according to the ratio, pipetted onto a micro titer plate (MTP) and diluted with water to the stated concentrations. A spore suspension of Botrci cinerea in an aqueous biomalt solution was then added. The plates were placed in a water vapor-saturated chamber at a temperature of 18° C. Using an absorption photometer, the MTPs were measured at 405 nm 7 days after the inoculation. The measured parameters were compared to the growth of the active compound-free control variant (100%) and the fungus-free and active compound-free blank value to determine the relative growth in % of the pathogens in the respective active compounds. These percentages were converted into efficacies. The expected efficacies of active compound mixtures were determined using Colby's formula [R. S. Colby, “Calculating synergistic and antagonistic responses of herbicide combinations”, Weeds 15, 20-22 (1967)] and compared with the observed efficacies.

Pyrenophora teres = experiment: Activity against Pyrenophora teres (net blotch on barley) in the microtiter plate test; assay type: cell-based; settings: MTP, 405 nm, 7 days after inoculation
Protocol: The active substances were formulated separately as a stock solution in dimethyl sulfoxide (DMSO) at a concentration of 10 000 ppm. Use Example 2—Activity Against Pyrenophora teres (Net Blotch on Barley) in the Microtiter Plate Test The stock solutions were mixed according to the ratio, pipetted onto a micro titer plate (MTP) and diluted with water to the stated concentrations. A spore suspension of Pyrenophora teres in an aqueous biomalt solution was then added. The plates were placed in a water vapor-saturated chamber at a temperature of 18° C. Using an absorption photometer, the MTPs were measured at 405 nm 7 days after the inoculation. The measured parameters were compared to the growth of the active compound-free control variant (100%) and the fungus-free and active compound-free blank value to determine the relative growth in % of the pathogens in the respective active compounds. These percentages were converted into efficacies. The expected efficacies of active compound mixtures were determined using Colby's formula [R. S. Colby, “Calculating synergistic and antagonistic responses of herbicide combinations”, Weeds 15, 20-22 (1967)] and compared with the observed efficacies.

Row | Compound | Observed efficacy (%) (Botrytis cinerea; 0.25 ppm) | Observed efficacy (%) (Pyrenophora teres; 0.063 ppm) | Observed efficacy (%) (Pyrenophora teres; 0.25 ppm) | Observed efficacy (%) (Botrytis cinerea; 16 ppm) | Observed efficacy (%) (Pyrenophora teres; 1 ppm)
1 | O=C(NCCc1ncc(C(F)(F)F)cc1Cl)c1ccccc1C(F)(F)F [Fluopyram] | 18% | 16% | 60% |  | 
2 | COc1cc(C)c(C(=O)c2c(OC)ccc(Br)c2C)c(OC)c1OC [Metrafenon, Metrafenone] |  | 3% |  | 10% | 18%
